Test results as given in patent publication US12083106B2, “Methods of using a pharmaceutical composition containing pirfenidone in sustained-release tablet form” (Excalibur Pharmaceuticals, Inc., priority 2011, dated 2024).

Experiments:
[1] = Pirfenidone bioavailability study in healthy volunteers; assay type: in vivo, human; settings: 600 mg sustained-release tablet form; 11 healthy volunteers
Procedure: Pirfenidone Bioavailability Study in Healthy Volunteers According to the Pharmacopoeia Standards
Said analyses were performed by a laboratory authorized by the Mexican Health Secretariat (Data not shown).
Maximum concentration data evidenced that the bioavailability is extrapolated to other lower concentrations, i.e., 100, 200 or 400 mg.

[2] = system: chronic renal failure secondary to primary nephropathy; test: Prospective, open label, 12-month clinical trial in patients with primary nephropathy with renal damage; assay type: in vivo, human; settings: oral sustained-release tablets every 12 hours, 12 months
Procedure: The present study is a prospective, open label, 12-month clinical trial including 30 patients with primary nephropathy, with renal damage (stages 1 to 4 of the KDIGO Classification) between 10 and 40 years of age, from both sexes. […] Said evaluation phase was useful so that the patient could become his/her own control. All of the patients received oral Pirfenidone (in sustained-release tablet form) administered every 12 hours containing 2400 mg/1.73 m^2 BSA, equivalent to […].; besides, they also received a conventional treatment appropriate for primary nephropathy and CRF, such as antihypertensives, alpha-ketoanalogues, phosphate chelating agents, angiotensin II antagonist, low-protein diet, etc. […] Two Doppler ultrasonographic studies were performed on each patient at the beginning of the study and at 12 months. Drug adverse events were evaluated and the loss of renal function and loss percentage were quantified. The use of Pirfenidone in renal function was monitored through cystatin C, plasma reciprocal creatinine and creatinine clearance in 24-hour urine collection.

[3] = system: breast capsular contracture; test: Pilot open prospective study in patients with breast capsular contracture (Baker scale, echosonography); assay type: in vivo, human; settings: for Implant fibrous capsule ILQ thickness, mean: Inner Lower Quadrant; for Implant fibrous capsule IUQ thickness, mean: Inner Upper Quadrant; for Implant fibrous capsule OLQ thickness, mean: Outer Lower Quadrant; for Implant fibrous capsule OUQ thickness, mean: Outer Upper Quadrant
Procedure: It is a pilot, open, prospective, longitudinal and analytical essay in which 17 patients diagnosed with an important breast capsular contracture (Grade III and Grade IV, Baker Scale) were treated with Pirfenidone 600 mg administered orally as sustained-release tablets three times per day (every 8 hours) during six months. A blood sample was taken from each patient in order to determine the genetic markers (TGF-β1). […], three Breast echosonographies were made, one at the beginning, the other at the end of the treatment (6 months) and the last one 6 months after the suspension of Pirfenidone treatment (12 months). Two parameters were evaluated: antero-posterior diameter and capsular thickness in all its quadrants (contrasting thickness measurements with the radiological parameters established by Tomas Stavros, 2006 and the radiological clinical correlation of thickness vs Baker Scale established by Alon Zahavi M D, 2006 for the diagnosis of Capsular Contracture). Free liquid in the capsule was looked for, as well as retraction or rupture signs through 5-12 MHz linear or curve transductors. During 12 months, a Breast Clinical Evaluation was also conducted on a monthly basis using Baker Classification. Deformation, texture through palpation and sensitivity were evaluated. A registration of each evaluation was made with digital photographs. The clinical and radiological changes of each breast were evaluated by a plastic surgeon and a qualified radiologist. The statistical analysis included 20 cases, taking into account that 3 patients presented bilateral capsular contracture of different grade in each breast; a total of 20 breasts were analyzed. Finally, the statistical analysis of the ordinal scale variables was conducted with means and ranges; and for the contrasts, Wilcoxon matched-pairs signed-ranks and Chi^2 were used. With regard to the Ratio Interval variables, the mean and standard deviation were used; and for the contrast, Student's t test for paired samples was used in which a case is compared against another case.

[4] = system: TGF-β1; test: TGF-β1 serum levels in female rats with silicone implants in mammary glands (ELISA); assay type: in vivo; settings: daily oral regimen during 21 days; extended release formula before conversion into tablets
Procedure: (§1) TGF-β1 serum levels determination in female rats submitted to the placement of silicone implants in mammary glands for inducing contracture development are shown in FIG. 5. The animals were administered a daily regimen of oral Pirfenidone during 21 days. […] TGF-β1 levels were determined through a commercial ELISA kit.

[5] = system: TGF-β1; test: TGF-β1 serum levels in animals with chronic hepatic damage by CCl4 (ELISA); assay type: in vivo; settings: treated vs not treated
[6] = system: TNF-α; test: TNF-α serum levels in female rats with silicone implants in mammary glands (ELISA); assay type: in vivo; settings: daily oral regimen during 21 days; extended release formula before conversion into tablets
Procedure: as §1, with “TNF-α” for “TGF-β1”, “6.” for “5.”, “animals” for “animals were”

[7] = system: TNF-α; test: TNF-α serum levels in animals with chronic hepatic damage by CCl4 (ELISA); assay type: in vivo; settings: treated vs not treated
[8] = system: progressive renal disease; settings: animal models; cited from earlier work
[9] = renal failure patients treated with hemodialysis; cited from earlier work
[10] = system: fibrosis in the mammary capsule; settings: administered orally; female rats with silicone implants; cited from earlier work
[11] = system: focal segmental glomerulosclerosis; settings: nephrotic syndrome and focal segmental glomerulosclerosis; cited from earlier work
[12] = system: hepatic fibrosis; settings: patients with hepatic fibrosis; expanded study; cited from earlier work
[13] = Initial (before treatment), 20 cases

With `Cc1ccc(=O)n(-c2ccccc2)c1` [Pirfenidone, 5-methyl-1-phenyl-2-(1H)-pyridone] the “time till which bioavailability is prolonged” value [1] was 12 h, the “renal damage progression rate” value ([2]; 2400 mg/1.73 m^2 BSA, phases 1-4 KDIGO) was “influenced positively” and the “drug side-effects in patients with primary nephropathy” value [2] was “limited to a minimum percentage of patients and disappeared rapidly”. For the same compound, the effect on proteinuria [2] was “beneficial effect”, the “histological damage to the affected kidneys (comparative ultrasonographic changes, beginning vs end of treatment)” value [2] was “detains the histological damage” and the “change of breast capsular contracture grade, all cases” value ([3]; 600 mg SR tablets orally three times per day, six months, 20 cases) was “reduction of breast capsular contracture grade”. For the same compound, the “cases with relapse of capsular contracture (WCSECC to grade III)” value ([3]; 6-month follow up after Pirfenidone discontinuation, 1 case grade IV, use of steroids and excessive exercise) was 5%, the “number of cases WCSECC (Without Clinical or Sonographic Evidence of Capsular Contracture)” value ([3]; 6 Months (end of treatment, 600 mg SR tablets three times per day), 20 cases) was 10 cases and the “number of cases with contracture grade I (Baker Scale)” value ([3]; 6 Months, 20 cases) was 5 cases. For the same compound, the “number of cases with contracture grade III (Baker Scale)” value ([3]; 6 Months, 20 cases) was 5 cases, the “patients with side effects (stomach aches, fatigue, skin dermatosis, photosensitivity)” value ([3]; 6 of 17 patients) was 35% and the “mean duration of side effects” value ([3]; 6 patients with side effects) was 10.8 days. The “BAKER SCALE Mean” value ([3]; 12-month follow-up, n = 20, P 0.0001 vs beginning) was 0.5, the “number of cases WCSECC” value ([3]; 12 months (6 months after suspension of treatment), 20 cases) was 14 cases and the “number of cases with contracture grade II (Baker Scale)” value ([3]; 12 months, 20 cases) was 1 cases. The “number of cases with contracture grade III (Baker Scale)” value ([3]; 12 months, 20 cases) was 5 cases, the “BAKER SCALE Mean (Range)” value ([3]; Beginning of the study, n = 20) was 4 (3-4) and the “Implant fibrous capsule ILQ thickness, mean” value ([3]; Beginning) was 1.86 centimeters. For the same compound, the “Implant fibrous capsule IUQ thickness, mean” value ([3]; Beginning) was 1.6 centimeters, the “Implant fibrous capsule OLQ thickness, mean” value ([3]; Beginning) was 1.775 centimeters and the “Implant fibrous capsule OUQ thickness, mean” value ([3]; Beginning) was 1.505 centimeters. The “Implant fibrous capsule ILQ thickness, mean” value ([3]; End) was 1.115 centimeters, the “Implant fibrous capsule IUQ thickness, mean” value ([3]; End) was 1.19 centimeters and the “Implant fibrous capsule OLQ thickness, mean” value ([3]; End) was 1.185 centimeters. The “Implant fibrous capsule OUQ thickness, mean” value ([3]; End) was 1.18 centimeters, the “number of cases with contracture grade III (Baker Scale)” value [3, 13] was 9 cases and the “number of cases with contracture grade IV (Baker Scale)” value [3, 13] was 11 cases. For the same compound, the “breast capsular contracture evolution, Baker scale (FIG. 1)” value ([3]; all the cases, after PFD administration) was “important improvement”, the “Initial AP Diameter of the breast implant, mean” value ([3]; echographically measured at the beginning (before treatment)) was 7.57 centimeters and the “AP Diameter at 12 months, mean” value ([3]; echographically measured, P = N.S. vs 6 months) was 6.085 centimeters. The “AP Diameter at 6 months, mean” value ([3]; echographically measured, P ≤ .001 vs beginning) was 6.425 centimeters, the “cases with gradual reduction of antero-posterior diameter (APD) and capsule thickness” value ([3]; echographies at 6 and 12 months, 19 cases) was 95% and the “cases showing retraction data and light subcapsular liquid” value ([3]; end of the study, group that passed from grade IV to grade III, two cases) was 10%. The “contracture state of left breast, single patient (FIG. 2)” value ([3]; initially grade III, after six-month PFD administration) was “Not Detectable by Ultrasound or Clinical Examination”, the “contracture state of both breasts, single patient (FIG. 3)” value ([3]; initially grade IV, end of the protocol) was “Capsular Contracture Not Detectable by Ultrasound or Clinical Examination” and the “cases reduced from grade IV to grade II” value ([3]; of 20 cases (1 case)) was 5%. For the same compound, the “cases initially grade IV that concluded WCSECC” value ([3]; of 20 cases (5 cases)) was 25%, the “cases reduced from grade IV to grade III” value ([3]; of 20 cases (5 cases)) was 25% and the “cases initially grade III that concluded WCSECC” value ([3]; of 20 cases (9 cases)) was 45%. The “cases concluded Without Clinical or Sonographic Evidence of Capsular Contracture (WCSECC)” value ([3]; of 20 cases (n=14)) was 70%, the “cases of relapse (FIG. 1)” value ([3]; six-month follow-up) was “one” and the “relapse, single patient (FIG. 2)” value ([3]; six-month follow-up) was “lack of relapse”. The “action on TGF-β production (TGF-β1 serum levels, FIG. 5)” value [4] was “extremely potent and selective inhibiting action”, the “TGF-β1 serum level (FIG. 5)” value [5] was “lower TGF-β1 serum level” and the “action on TNF-α (TNF-α serum levels, FIG. 6)” value [6] was “extremely potent and selective TNF-α inhibiting action”. For the same compound, the “TNF-α serum level (FIG. 6)” value [7] was “lower TNF-α serum level”, the TGF-β expression [8] was “reduces TGF-β expression” and the “development of progressive renal disease” value [8] was “Can prevent the development of progressive renal disease”. The “growth, development and toxic effects in treated animals” value [8] was “grew and developed normally and without toxic effects”, the proteinuria levels [8] was “Reduces proteinuria levels” and the “renal function / collagen accumulation in the renal cortex” value [8] was “Improves renal function reducing collagen accumulation in the renal cortex”. For the same compound, the “urea nitrogen and serum creatinine levels” value [8] was “Reduces urea nitrogen and serum creatinine levels”, the “need to adjust dose in patients with renal damage (pharmacokinetics)” value [9] was “not necessary to adjust the pirfenidone dose” and the “tolerability in patients with Terminal Chronic Renal Failure (TCRF)” value [9] was “well tolerated”. For the same compound, the “development of fibrosis in the mammary capsule” value [10] was “prevents the development of the characteristic fibrosis”, the “delay of renal function impairment” value [11] was “favorable results” and the “effects evidenced through hepatic biopsy” value [12] was “beneficial effects”.
